Experimental data: ChEMBL document CHEMBL1201862, “PubChem BioAssay data set” (2004)
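Five concentrations, 48 hours, 96-well plates. The concentration for 50% growth inhibition is given as GI50.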 Active and inactive are the calls of the source. Rule as the data show it: active = GI50 up to about 1.1 µM and inactive = higher.

Legend:
Experiment in all cases: NCI tumour cell line growth inhibition, 48 h
RXF 631 = tested on: RXF 631
LXFL 529 = tested on: LXFL 529
HOP-18 = tested on: HOP-18
M19-MEL = tested on: M19-MEL
DMS-114 = tested on: DMS-114
KM-20L2 = tested on: KM-20L2
DLD-1 = tested on: DLD-1
XF498 = tested on: XF498
DMS-273 = tested on: DMS-273

| SMILES | GI50 (RXF 631) | GI50 (LXFL 529) | GI50 (HOP-18) | GI50 (M19-MEL) | GI50 (DMS-114) | GI50 (KM-20L2) | GI50 (DLD-1) | GI50 (XF498) | GI50 (DMS-273) |
| --- | --- | --- | --- | --- | --- | --- | --- | --- | --- |
| CC(C)(C)C1=CC(CCC(=O)Nc2ccccc2[N+](=O)[O-])=NC(S)N1 (stereo unspecified) | > 100 µM (inactive) | > 100 µM (inactive) | > 100 µM (inactive) | > 100 µM (inactive) | > 100 µM (inactive) | > 100 µM (inactive) | > 100 µM (inactive) | – | – |
| COc1ccc(/C=C2\CCc3ccccc3C2=O)cc1OC | – | 25.7 µM (inactive) | 33 µM (inactive) | 30.1 µM (inactive) | 17.1 µM (inactive) | 30.8 µM (inactive) | 21.9 µM (inactive) | 17.7 µM (inactive) | – |
| O=C1NC(=O)C2C1C1C=C3c4ccccc4N(c4ccccc4)C32[C@H]2C(=O)NC(=O)[C@@H]12 (stereo partly specified) | – | > 100 µM (inactive) | > 100 µM (inactive) | > 100 µM (inactive) | > 100 µM (inactive) | > 100 µM (inactive) | > 100 µM (inactive) | – | > 100 µM (inactive) |
| CN(Cc1cnc2nc(N)nc(N)c2n1)c1ccc(C(=O)N[C@@H](CCC(=O)O)C(=O)O)cc1 [METHOTREXATE] | – | 0.0336 µM (active) | 15.9 µM (inactive) | 0.424 µM (active) | 0.0288 µM (active) | 0.044 µM (active) | 0.0356 µM (active) | 68.5 µM (inactive) | 0.0308 µM (active) |
| CCc1c(OC(C)=O)c2c(NC3OC(COC(C)=O)C(OC(C)=O)C(OC(C)=O)C3OC(C)=O)nc(SC)nc2oc1=O (stereo unspecified) | > 100 µM (inactive) | > 100 µM (inactive) | > 100 µM (inactive) | > 100 µM (inactive) | > 100 µM (inactive) | > 100 µM (inactive) | > 100 µM (inactive) | > 100 µM (inactive) | – |
| CC(C)(C)c1ccc2c(c1)S(=O)(=O)Nc1ccc(Cl)cc1NS(=O)(=O)c1cc(C(C)(C)C)ccc1OCCOCCOCCO2 | – | – | > 100 µM (inactive) | 62.4 µM (inactive) | 36.3 µM (inactive) | – | 85.7 µM (inactive) | – | 56.8 µM (inactive) |
| O=[N+]([O-])c1ccc(Cl)c(C2SCc3nc4ccccc4n32)c1 (stereo unspecified) | – | 34.8 µM (inactive) | 5.87 µM (inactive) | 29.6 µM (inactive) | 37 µM (inactive) | – | 45.8 µM (inactive) | – | 22.9 µM (inactive) |
| O=C(NC1CCCC1=O)c1ccccc1 (stereo unspecified) | > 100 µM (inactive) | – | – | > 100 µM (inactive) | > 100 µM (inactive) | > 100 µM (inactive) | > 100 µM (inactive) | > 100 µM (inactive) | > 100 µM (inactive) |
| COC(=O)C1=C(C=O)C2C=CC1C2 (stereo unspecified) | > 100 µM (inactive) | 21.1 µM (inactive) | 30.5 µM (inactive) | > 45 µM (inactive) | > 57.7 µM (inactive) | > 63 µM (inactive) | 27.9 µM (inactive) | 27.2 µM (inactive) | > 44.2 µM (inactive) |
| CC(=O)Oc1ccc2c(c1)C(=O)c1nc(C)c(C)nc1C2=O | 30.5 µM (inactive) | > 51.8 µM (inactive) | > 83.2 µM (inactive) | 4.61 µM (inactive) | 34.8 µM (inactive) | 34 µM (inactive) | 42.9 µM (inactive) | 43.9 µM (inactive) | > 73.8 µM (inactive) |
| CN(C)CCn1cnc2ncccc2c1=O | – | > 100 µM (inactive) | – | > 100 µM (inactive) | 53.1 µM (inactive) | > 100 µM (inactive) | > 100 µM (inactive) | > 100 µM (inactive) | > 100 µM (inactive) |
| Brc1ccc(-c2cc3c(cc2C2SCCS2)OCO3)cc1 | – | 25.4 µM (inactive) | 49.4 µM (inactive) | 41.7 µM (inactive) | 23.2 µM (inactive) | 26.7 µM (inactive) | 31.5 µM (inactive) | 14.2 µM (inactive) | 35.6 µM (inactive) |
| Cc1ccc(N2C(=O)/C(=C/c3ccc(N(CCC#N)CCC#N)cc3C)N=C2c2cc([N+](=O)[O-])ccc2Cl)cc1 | > 100 µM (inactive) | > 100 µM (inactive) | > 100 µM (inactive) | > 100 µM (inactive) | 75.2 µM (inactive) | – | > 100 µM (inactive) | – | > 100 µM (inactive) |
| S=C1CNC(=S)CN1 | > 100 µM (inactive) | > 100 µM (inactive) | > 100 µM (inactive) | > 100 µM (inactive) | > 100 µM (inactive) | > 100 µM (inactive) | > 100 µM (inactive) | – | > 100 µM (inactive) |
| CNC(=O)C1CCc2nnc(-c3ccccc3)n21 (stereo unspecified) | > 100 µM (inactive) | > 100 µM (inactive) | > 100 µM (inactive) | > 100 µM (inactive) | > 100 µM (inactive) | > 100 µM (inactive) | > 100 µM (inactive) | – | > 100 µM (inactive) |
| CC(=O)O[C@H]1C(=O)[C@@]2(C)C(C(OC(=O)c3ccccc3)[C@]3(O)CC(OC(=O)C(O)C(NC(=O)c4ccccc4)c4ccc(C)cc4)C(C)=C1C3(C)C)[C@]1(OC(C)=O)CO[C@@H]1C[C@@H]2O (stereo partly specified) | – | 0.0199 µM (active) | 4.01 µM (inactive) | 0.0195 µM (active) | 0.0197 µM (active) | 0.031 µM (active) | 0.186 µM (active) | 0.0025 µM (active) | 0.0123 µM (active) |
| Nc1nc(=O)n([C@@H]2CC[C@H](CO)O2)cc1F | – | > 100 µM (inactive) | > 100 µM (inactive) | – | > 100 µM (inactive) | > 100 µM (inactive) | > 100 µM (inactive) | – | > 100 µM (inactive) |
| O=C(O)c1cc(Cl)cc(NC(=O)C(Cl)Cl)c1Cl | > 100 µM (inactive) | > 100 µM (inactive) | > 100 µM (inactive) | > 100 µM (inactive) | > 100 µM (inactive) | > 100 µM (inactive) | > 100 µM (inactive) | > 100 µM (inactive) | > 100 µM (inactive) |
| CC(C)=CC(=O)Cc1nc2ccc([N+](=O)[O-])cc2[nH]c1=O | – | 53.7 µM (inactive) | – | > 100 µM (inactive) | 51.3 µM (inactive) | > 100 µM (inactive) | 72.1 µM (inactive) | 41.3 µM (inactive) | > 100 µM (inactive) |
| COc1cc(NS(C)(=O)=O)ccc1Nc1c2ccccc2nc2ccccc12 [AMSACRINE] | 0.509 µM (active) | 3.32 µM (inactive) | 0.7 µM (active) | 1.89 µM (inactive) | 0.184 µM (active) | 1.45 µM (inactive) | 2.79 µM (inactive) | – | 0.0659 µM (active) |
| Nc1ncn(C2C=C(CO)C(O)C2O)c(=O)n1 (stereo unspecified) | 47.6 µM (inactive) | > 100 µM (inactive) | > 100 µM (inactive) | > 100 µM (inactive) | – | 66.1 µM (inactive) | 63.5 µM (inactive) | – | > 100 µM (inactive) |
